Patent publication US11873298B2, “Compounds and uses thereof” (JANSSEN PHARMACEUTICA NV, priority 2017, dated 2024)

Key:
[1] = molecular target: T1, SCD5 (Homo sapiens, UniProt Q86SK9); assay: Growth inhibition of humanized yeast strain expressing SCD5 as sole desaturase; type: cell-based; conditions: humanized yeast strain, 40 h
T1 construct: host or cells: S. cerevisiae ole1Δ strain (W303 pdr1Δ pdr3Δ background), plasmid pRS316 with TDH3 promoter and CYC1 terminator
T1 sequence (Q86SK9 1-330): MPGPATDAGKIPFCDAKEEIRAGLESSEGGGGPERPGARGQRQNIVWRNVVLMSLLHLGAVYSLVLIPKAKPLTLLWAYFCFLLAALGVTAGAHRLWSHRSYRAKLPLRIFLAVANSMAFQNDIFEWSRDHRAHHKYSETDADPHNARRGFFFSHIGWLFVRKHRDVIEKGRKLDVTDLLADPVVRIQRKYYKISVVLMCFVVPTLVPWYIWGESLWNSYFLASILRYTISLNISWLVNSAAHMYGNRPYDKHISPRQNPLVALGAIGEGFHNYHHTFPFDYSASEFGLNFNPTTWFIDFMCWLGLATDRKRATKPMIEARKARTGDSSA
How it was run: (§1)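 OD600 growth read-out. ole1Δ yeast, pdr1Δ pdr3Δ, with Ole1/SCD1/SCD5 on a plasmid; SX-Ura media throughout; 2× cell density 0.02 in CSM-Galactose; DMSO compound dilutions; humidified 30° C.; Ole1 stopped at 24 h, SCD1/SCD5 at 40 h.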

[2] = molecular target: T2, SCD1 (Homo sapiens, UniProt O00767); assay: Growth inhibition of humanized yeast strain expressing SCD1 as sole desaturase; type: cell-based; conditions: humanized yeast strain, 40 h
T2 construct: host or cells: S. cerevisiae ole1Δ strain (W303 pdr1Δ pdr3Δ background), plasmid pRS316 with TDH3 promoter and CYC1 terminator
T2 sequence (O00767 1-359): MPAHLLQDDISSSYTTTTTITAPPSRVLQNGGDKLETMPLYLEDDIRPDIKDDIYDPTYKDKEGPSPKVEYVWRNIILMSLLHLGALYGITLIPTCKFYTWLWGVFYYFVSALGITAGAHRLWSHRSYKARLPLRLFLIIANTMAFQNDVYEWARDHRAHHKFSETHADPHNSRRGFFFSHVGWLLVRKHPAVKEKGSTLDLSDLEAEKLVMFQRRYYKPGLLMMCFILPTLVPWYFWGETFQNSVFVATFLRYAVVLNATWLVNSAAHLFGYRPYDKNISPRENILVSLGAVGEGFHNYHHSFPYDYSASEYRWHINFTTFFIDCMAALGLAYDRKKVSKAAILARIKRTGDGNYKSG
How it was run: as §1

CC(C)(C)OC(=O)N1CCC(c2nc(-c3cccc(C(=O)C4COC4)c3)no2)CC1 [Compound 796]
IC50 [1]: 1.59 µM
IC50 [2]: > 45 µM

COC1(C(=O)N2CCC(c3nc(-c4ccc5cnn(C(C)C)c5c4)no3)CC2)CC1 [Compound 797]
IC50 [1]: 0.133 µM
IC50 [2]: > 45 µM

CC(C)n1ncc2ccc(-c3nc(N4CCNCC4)no3)cc21 [Compound 798]
IC50 [1]: > 45 µM
IC50 [2]: > 45 µM

COC1(C(=O)N2CCC(c3noc(-c4ccc5cnn(C(C)C)c5c4)n3)CC2)CC1 [Compound 799]
IC50 [1]: 0.01 µM
IC50 [2]: > 45 µM

CC1(CC(=O)N2CCC(c3nc(-c4ccc5cnn(C6COC6)c5c4)ns3)CC2)CC1 [Compound 801]
IC50 [1]: 0.363 µM
IC50 [2]: > 45 µM

COCC(C)(C)n1ncc2ccc(-c3noc(C4CCN(C(=O)CC(C)(C)C)CC4)n3)cc21 [Compound 802]
IC50 [1]: 14.2 µM
IC50 [2]: > 45 µM

COC(=O)N1CCN(c2nc(-c3ccc4cnn(C5CCOC5)c4c3)no2)CC1 (stereo not drawn) [Compound 803]
IC50 [1]: 0.679 µM
IC50 [2]: 12.9 µM

CC(C)n1ncc2ccc(-c3noc(N4CCn5ccnc5C4)n3)cc21 [Compound 804]
IC50 [1]: > 45 µM
IC50 [2]: > 45 µM

CC(C)n1ncc2ccc(-c3noc(N4CCn5c(Cl)cnc5C4)n3)cc21 [Compound 805]
IC50 [1]: 9.36 µM
IC50 [2]: > 45 µM

CC(C)(C)OC(=O)N1CCC(c2nc(N3CC4(COC4)C3)no2)CC1 [Compound 806]
IC50 [1]: > 45 µM
IC50 [2]: > 45 µM

CC(C)(C)CC(=O)N1CCC(c2nc(-c3ccc4cnn(C5(C)COC5)c4c3)no2)CC1 [Compound 807]
IC50 [1]: 0.247 µM
IC50 [2]: > 45 µM

CC(C)(C)OC(=O)N1CCC(c2nc(-c3ccccc3)no2)CC1 [Compound 808]
IC50 [1]: 5.82 µM
IC50 [2]: > 45 µM

CC(C)Nc1cc(-c2nc(N3CCN(C(=O)OC(C)(C)C)CC3)no2)ccn1 [Compound 809]
IC50 [1]: 0.124 µM
IC50 [2]: > 45 µM

CC(C)(C)OC(=O)N1CCC(N2CCN(c3ccc4cnn(C5COC5)c4c3)C2=O)CC1 [Compound 810]
IC50 [1]: 2.5 µM
IC50 [2]: > 45 µM

CC(C)(C)OC(=O)N1CCC(c2nc(-c3ccc4cnc(C5COC5)n4c3)no2)CC1 [Compound 811]
IC50 [1]: 0.679 µM
IC50 [2]: > 45 µM

CC(C)(C)OC(=O)N1CCC(c2noc(-c3cccc(C4CCCO4)c3)n2)CC1 (stereo not drawn) [Compound 812]
IC50 [1]: 0.01 µM
IC50 [2]: > 45 µM

COC(=O)N1CCC(c2noc(-c3ccc4cnn(C5CCOC5)c4c3)n2)CC1 (stereo not drawn) [Compound 813]
IC50 [1]: 0.01 µM
IC50 [2]: > 45 µM

CC(C)(C)OC(=O)N1C[C@@H]2[C@H](C1)[C@H]2NC(=O)c1ccc2cnn(C3COC3)c2c1 [Compound 814]
IC50 [1]: > 45 µM
IC50 [2]: > 45 µM

COC(=O)N1CCC(c2nc(-c3ccnc(NC(C)C)c3)no2)CC1 [Compound 815]
IC50 [1]: > 45 µM
IC50 [2]: > 45 µM

CC1(OC(=O)N2CCC(c3nc(-c4ccc5cnn(C6(C)COC6)c5c4)no3)CC2)CC1 [Compound 816]
IC50 [1]: 7.19 µM
IC50 [2]: > 45 µM

CC(C)(C)OC(=O)N1CCC(c2noc(-c3ccc4cnn(C5CCOC5)c4c3)n2)CC1 (stereo not drawn) [Compound 817]
IC50 [1]: 0.01 µM
IC50 [2]: 4.13 µM

CC(C)(C)OC(=O)N1CCN(c2noc(-c3ccnc(NC4COC4)c3)n2)CC1 [Compound 818]
IC50 [1]: 0.56 µM
IC50 [2]: > 45 µM

COC(=O)N1CCC(c2nc(-c3cccc(C4CCOC4)c3)no2)CC1 (stereo not drawn) [Compound 819]
IC50 [1]: 3.72 µM
IC50 [2]: > 45 µM

CC(C)(C)OC(=O)N1CCC(c2nc(-c3ccc4cnn([C@H]5C[C@](C)(O)C5)c4c3)no2)CC1 [Compound 820]
IC50 [1]: 3.74 µM
IC50 [2]: > 45 µM

CC(C)(C)OC(=O)N1CCC(c2nc(-c3ccc4cnn([C@H]5C[C@](C)(O)C5)c4c3)no2)CC1 [Compound 821]
IC50 [1]: 5.06 µM
IC50 [2]: > 45 µM

CC(C)(C)OC(=O)N1CCC(c2nc(-c3ccc4cnn([C@H]5C[C@@H](O)C5)c4c3)no2)CC1 [Compound 822]
IC50 [1]: 0.111 µM
IC50 [2]: > 45 µM

CC(C)(C)OC(=O)N1CCC(c2nc(-c3ccc4cnn([C@H]5C[C@@H](O)C5)c4c3)no2)CC1 [Compound 823]
IC50 [1]: 0.119 µM
IC50 [2]: > 45 µM

CC(C)(C)OC(=O)N1CCC(c2nc(-c3cccc(C4CCCOC4)c3)no2)CC1 (stereo not drawn) [Compound 824]
IC50 [1]: 0.932 µM
IC50 [2]: > 45 µM

CC(C)(C)OC(=O)N1CCC(c2nc(-c3ccc4cncn4c3)no2)CC1 [Compound 825]
IC50 [1]: 9.49 µM
IC50 [2]: > 45 µM

CC(C)n1cc2c(n1)CN(c1noc(C3CCN(C(=O)OC(C)(C)C)CC3)n1)CC2 [Compound 826]
IC50 [1]: 1.99 µM
IC50 [2]: > 45 µM

CC(C)n1ncc2c1CN(c1noc(C3CCN(C(=O)OC(C)(C)C)CC3)n1)CC2 [Compound 827]
IC50 [1]: > 45 µM
IC50 [2]: > 45 µM

CC(C)n1ncc2ccc(-c3nc(N4CCn5c(Cl)cnc5C4)no3)cc21 [Compound 828]
IC50 [1]: 0.067 µM
IC50 [2]: > 45 µM

CC(C)(C)OC(=O)N1CCN(c2nc(-c3cccc(C4CCOC4)c3)no2)CC1 (stereo not drawn) [Compound 829]
IC50 [1]: 2.2 µM
IC50 [2]: > 45 µM

COC1(C2CCN(c3nc(-c4ccc5cnn(C(C)C)c5c4)no3)CC2)COC1 [Compound 830]
IC50 [1]: > 45 µM
IC50 [2]: > 45 µM

CC(C)(C)OC(=O)N1CCN(c2noc(-c3ccc4c(c3)C3(CCC3)OC4)n2)CC1 [Compound 831]
IC50 [1]: 1.2 µM
IC50 [2]: > 45 µM

CC(C)n1ncc2ccc(-c3noc(C4(O)CCN(C(=O)OC(C)(C)C)CC4)n3)cc21 [Compound 832]
IC50 [1]: 11.6 µM
IC50 [2]: > 45 µM

CC(C)(C)OC(=O)N1CCC(c2nc(-c3ccn4cnc(C#N)c4c3)no2)CC1 [Compound 833]
IC50 [1]: > 45 µM
IC50 [2]: > 45 µM

COC(=O)N1CCC(c2noc(-c3ccc4cnn(C(CO)CO)c4c3)n2)CC1 [Compound 834]
IC50 [1]: > 45 µM
IC50 [2]: > 45 µM

CC(C)n1ncc2ccc(-c3cc(C4CCN(C(=O)OC(C)(C)C)CC4)on3)nc21 [Compound 835]
IC50 [1]: > 45 µM
IC50 [2]: > 45 µM

COC1(c2nc(-c3ccc4cnn(C(C)C)c4c3)no2)CCN(C(=O)OC(C)(C)C)CC1 [Compound 836]
IC50 [1]: 1.44 µM
IC50 [2]: > 45 µM

COC(=O)N1CCN(c2nc(-c3cccc(C4CCOC4)c3)no2)CC1 (stereo not drawn) [Compound 837]
IC50 [1]: 12.5 µM
IC50 [2]: > 45 µM

O=C(C1CCC1)N1CCN(c2noc(-c3ccc4cnn(C5COC5)c4c3)n2)CC1 [Compound 838]
IC50 [1]: 0.021 µM
IC50 [2]: > 45 µM

O=C(CC1CC1)N1CCN(c2noc(-c3ccc4cnn(C5COC5)c4c3)n2)CC1 [Compound 839]
IC50 [1]: 0.035 µM
IC50 [2]: > 45 µM

COCC(COC)n1ncc2ccc(-c3nc(C4CCN(C(=O)OC)CC4)no3)cc21 [Compound 840]
IC50 [1]: 20.7 µM
IC50 [2]: > 45 µM

CCC(=O)N1CCN(c2noc(-c3ccc4cnn(C5COC5)c4c3)n2)CC1 [Compound 841]
IC50 [1]: 0.209 µM
IC50 [2]: > 45 µM

CC1(CC(=O)N2CCN(c3noc(-c4ccc5cnn(C6COC6)c5c4)n3)CC2)CC1 [Compound 842]
IC50 [1]: 0.01 µM
IC50 [2]: > 45 µM

O=C(N1CCN(c2noc(-c3ccc4cnn(C5COC5)c4c3)n2)CC1)C12CC(C1)C2 [Compound 843]
IC50 [1]: 0.033 µM
IC50 [2]: > 45 µM

O=C(C1CC1)N1CCN(c2noc(-c3ccc4cnn(C5COC5)c4c3)n2)CC1 [Compound 844]
IC50 [1]: 0.015 µM
IC50 [2]: > 45 µM

CC(C)n1ncc2ccc(-c3nc(N4CCN(C(=O)c5ncccc5F)CC4)no3)cc21 [Compound 845]
IC50 [1]: 0.637 µM
IC50 [2]: > 45 µM

CC1(OC(=O)N2CCC(c3nc(-c4cccc(C5CCOC5)c4)no3)CC2)CC1 (stereo not drawn) [Compound 846]
IC50 [1]: 0.04 µM
IC50 [2]: > 45 µM

CC(C)(C)OC(=O)N1CCC(c2nc(-c3ccc4cnn([C@H]5C[C@H](OC(=O)c6ccc([N+](=O)[O-])cc6)C5)c4c3)no2)CC1 [Compound 847]
IC50 [1]: > 45 µM
IC50 [2]: > 45 µM

CC1(C)CC1C(=O)N1CCC(c2noc(-c3ccc4cnn(C5COC5)c4c3)n2)CC1 (stereo not drawn) [Compound 848]
IC50 [1]: 0.01 µM
IC50 [2]: > 45 µM

CC(C)n1ncc2ccc(-c3nnc(C4CCN(C(=O)OC(C)(C)C)CC4)o3)cc21 [Compound 849]
IC50 [1]: 0.644 µM
IC50 [2]: > 45 µM

CC(C)(C)OC(=O)N1CCCC(c2noc(-c3ccc4cnn(C5COC5)c4c3)n2)CC1 (stereo not drawn) [Compound 850]
IC50 [1]: 0.01 µM
IC50 [2]: > 45 µM

CC(C)(C)OC(=O)N1CCC(c2nnc(-c3ccc4cnn(C5COC5)c4c3)o2)CC1 [Compound 851]
IC50 [1]: 0.065 µM
IC50 [2]: > 45 µM

COC(=O)N1CCC(c2nnc(-c3ccc4cnn(C(C)C)c4c3)o2)CC1 [Compound 852]
IC50 [1]: 5.36 µM
IC50 [2]: > 45 µM

CC(C)n1ncc2ccc(-c3nc(C4CCN(C(=O)CC5CC5)CC4)no3)cc21 [Compound 853]
IC50 [1]: 0.01 µM
IC50 [2]: > 45 µM
